Results from patent US6979686B1, “Substituted pyrazoles as p38 kinase inhibitors” (Pharmacia Corporation, priority 2001, dated 2005).
pIC50: −log10 of the molar value.

biological target: T1, human p38 kinase alpha (Homo sapiens, UniProt Q16539); assay: p38 kinase in vitro assay, phosphorylation of biotinylated PHAS-I with 32P-ATP; format: biochemical; details: @ 1.0 uM
T1 construct: GST (N, cleaved yes); made in house; host or cells: E. coli DH10B
T1 sequence (Q16539 whole entry): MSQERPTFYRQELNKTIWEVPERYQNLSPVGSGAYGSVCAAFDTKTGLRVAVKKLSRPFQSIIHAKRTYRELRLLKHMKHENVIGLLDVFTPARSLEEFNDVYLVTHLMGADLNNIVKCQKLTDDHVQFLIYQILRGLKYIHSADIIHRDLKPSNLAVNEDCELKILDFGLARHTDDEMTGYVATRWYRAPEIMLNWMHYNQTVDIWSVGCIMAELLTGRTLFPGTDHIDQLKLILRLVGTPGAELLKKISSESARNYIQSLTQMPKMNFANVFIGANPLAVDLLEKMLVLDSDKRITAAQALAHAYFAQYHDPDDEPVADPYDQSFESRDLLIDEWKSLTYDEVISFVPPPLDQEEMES

Going from CSc1cccc(NC(=O)NCCc2[nH]nc(-c3ccc(F)cc3)c2-c2ccncc2)c1 [Example B-0933] to COc1cccc(NC(=O)NCCc2[nH]nc(-c3ccc(F)cc3)c2-c2ccncc2)c1 [Example B-0948], the “P38 alpha kinase % inhib @ conc. (uM)” value rises from 47.0% @ to 68.0% @.

CCOC(=O)C(CCSC)NC(=O)NCCc1[nH]nc(-c2ccc(F)cc2)c1-c1ccncc1 (stereo not shown) [Example B-0935] and CCOC(=O)CCNC(=O)NCCc1[nH]nc(-c2ccc(F)cc2)c1-c1ccncc1 [Example B-0947] are the same in “P38 alpha kinase % inhib @ conc. (uM)” value: 69.0% @ for the first, 69.0% @ for the second.

Compared with CC(C)NC(=O)NCCc1[nH]nc(-c2ccc(F)cc2)c1-c1ccncc1 [Example B-0937], CC(C)C(=O)NCCc1[nH]nc(-c2ccc(F)cc2)c1-c1ccncc1 [Example B-0983] is higher in “P38 alpha kinase % inhib @ conc. (uM)” value: 64.0% @ for the first, 75.0% @ for the second.

Compared with CCCCOc1ccc(NC(=O)NCCc2[nH]nc(-c3ccc(F)cc3)c2-c2ccncc2)cc1 [Example B-0944], O=C(NCCc1[nH]nc(-c2ccc(F)cc2)c1-c1ccncc1)Nc1ccc(F)cc1 [Example B-1034] is higher in “P38 alpha kinase % inhib @ conc. (uM)” value: 45.0% @ for the first, 66.0% @ for the second.

Compared with O=C(NCCc1ccccc1)NCCc1[nH]nc(-c2ccc(F)cc2)c1-c1ccncc1 [Example B-0945], O=C(NCCc1[nH]nc(-c2ccc(F)cc2)c1-c1ccncc1)NCc1ccccc1 [Example B-1031] is lower in “P38 alpha kinase % inhib @ conc. (uM)” value: 96.0% @ for the first, 69.0% @ for the second.

First: CCOC(=O)c1ccc(NC(=O)NCCc2[nH]nc(-c3ccc(F)cc3)c2-c2ccncc2)cc1 [Example B-0949]
Second: Cc1ccc(C(=O)NCCc2[nH]nc(-c3ccc(F)cc3)c2-c2ccncc2)cc1 [Example B-1002]
The “P38 alpha kinase % inhib @ conc. (uM)” value of the first is higher: 90.0% @ for the first, 70.0% @ for the second.

Going from CC(=O)OCC(=O)NCCc1[nH]nc(-c2ccc(F)cc2)c1-c1ccncc1 [Example B-0981] to COCC(=O)NCCc1[nH]nc(-c2ccc(F)cc2)c1-c1ccncc1 [Example B-0994], the “P38 alpha kinase % inhib @ conc. (uM)” value falls from 62.0% @ to 55.0% @.

Going from O=C(NCCc1[nH]nc(-c2ccc(F)cc2)c1-c1ccncc1)c1ccccc1I [Example B-0982] to O=C(NCCc1[nH]nc(-c2ccc(F)cc2)c1-c1ccncc1)c1ccccc1C(F)(F)F [Example B-0996], the “P38 alpha kinase % inhib @ conc. (uM)” value falls from 65.0% @ to 54.0% @.

Compared with C=CCOC(=O)NCCc1[nH]nc(-c2ccc(F)cc2)c1-c1ccncc1 [Example B-0985], CC(C)COC(=O)NCCc1[nH]nc(-c2ccc(F)cc2)c1-c1ccncc1 [Example B-1010] is lower in “P38 alpha kinase % inhib @ conc. (uM)” value: 86.0% @ for the first, 75.0% @ for the second.

Going from CC(=O)NCCc1[nH]nc(-c2ccc(F)cc2)c1-c1ccncc1 [Example B-0987] to NC(=O)NCCc1[nH]nc(-c2ccc(F)cc2)c1-c1ccncc1 [Example B-1030], the “P38 alpha kinase % inhib @ conc. (uM)” value falls from 78.0% @ to 76.0% @.

Compared with O=C(NCCc1[nH]nc(-c2ccc(F)cc2)c1-c1ccncc1)C1CCC1 [Example B-0988], O=C(NCCc1[nH]nc(-c2ccc(F)cc2)c1-c1ccncc1)C1CC1 [Example B-0989] is higher in “P38 alpha kinase % inhib @ conc. (uM)” value: 72.0% @ for the first, 85.0% @ for the second.

Compared with O=C(NCCc1[nH]nc(-c2ccc(F)cc2)c1-c1ccncc1)c1ccno1 [Example B-0992], O=C(NCCc1[nH]nc(-c2ccc(F)cc2)c1-c1ccncc1)c1cccnc1 [Example B-1005] is lower in “P38 alpha kinase % inhib @ conc. (uM)” value: 77.0% @ for the first, 58.0% @ for the second.

First: CC(=O)OC(C)C(=O)NCCc1[nH]nc(-c2ccc(F)cc2)c1-c1ccncc1 (stereo not shown) [Example B-0993]
Second: CC(C)NC(=O)NCCc1[nH]nc(-c2ccc(F)cc2)c1-c1ccncc1 [Example B-1029]
The “P38 alpha kinase % inhib @ conc. (uM)” value of the first is lower: 57.0% @ for the first, 69.0% @ for the second.

Going from COc1ccc(CC(=O)NCCc2[nH]nc(-c3ccc(F)cc3)c2-c2ccncc2)cc1 [Example B-1000] to COc1ccc(S(=O)(=O)NCCc2[nH]nc(-c3ccc(F)cc3)c2-c2ccncc2)cc1 [Example B-1025], the “P38 alpha kinase % inhib @ conc. (uM)” value rises from 55.0% @ to 61.0% @.

First: O=C(NCCc1[nH]nc(-c2ccc(F)cc2)c1-c1ccncc1)C1CCCC1 [Example B-1004]
Second: O=C(NCCc1[nH]nc(-c2ccc(F)cc2)c1-c1ccncc1)N1CCCC1 [Example B-1032]
The “P38 alpha kinase % inhib @ conc. (uM)” value of the first is higher: 79.0% @ for the first, 76.0% @ for the second.

Going from O=C(NCCc1[nH]nc(-c2ccc(F)cc2)c1-c1ccncc1)c1ccncc1 [Example B-1006] to O=C(NCCc1[nH]nc(-c2ccc(F)cc2)c1-c1ccncc1)c1ccccn1 [Example B-1007], the “P38 alpha kinase % inhib @ conc. (uM)” value falls from 69.0% @ to 52.0% @.

First: CC(Oc1ccccc1)C(=O)NCCc1[nH]nc(-c2ccc(F)cc2)c1-c1ccncc1 (stereo not shown) [Example B-1009]
Second: O=S(=O)(NCCc1[nH]nc(-c2ccc(F)cc2)c1-c1ccncc1)c1ccccc1 [Example B-1014]
The “P38 alpha kinase % inhib @ conc. (uM)” value of the first is lower: 80.0% @ for the first, 88.0% @ for the second.

Going from CC(C)S(=O)(=O)NCCc1[nH]nc(-c2ccc(F)cc2)c1-c1ccncc1 [Example B-1015] to CS(=O)(=O)NCCc1[nH]nc(-c2ccc(F)cc2)c1-c1ccncc1 [Example B-1024], the “P38 alpha kinase % inhib @ conc. (uM)” value rises from 77.0% @ to 89.0% @.

First: O=S(=O)(Cc1ccccc1)NCCc1[nH]nc(-c2ccc(F)cc2)c1-c1ccncc1 [Example B-1017]
Second: CCS(=O)(=O)NCCc1[nH]nc(-c2ccc(F)cc2)c1-c1ccncc1 [Example B-1023]
The “P38 alpha kinase % inhib @ conc. (uM)” value of the first is higher: 96.0% @ for the first, 93.0% @ for the second.

Compared with O=S(=O)(NCCc1[nH]nc(-c2ccc(F)cc2)c1-c1ccncc1)c1ccc(F)cc1F [Example B-1018], O=S(=O)(NCCc1[nH]nc(-c2ccc(F)cc2)c1-c1ccncc1)c1cccs1 [Example B-1026] is lower in “P38 alpha kinase % inhib @ conc. (uM)” value: 88.0% @ for the first, 87.0% @ for the second.

O=S(=O)(NCCc1[nH]nc(-c2ccc(F)cc2)c1-c1ccncc1)C(F)(F)F [Example B-1019] and CCCS(=O)(=O)NCCc1[nH]nc(-c2ccc(F)cc2)c1-c1ccncc1 [Example B-1021] are the same in “P38 alpha kinase % inhib @ conc. (uM)” value: 82.0% @ for the first, 82.0% @ for the second.

First: CCCCS(=O)(=O)NCCc1[nH]nc(-c2ccc(F)cc2)c1-c1ccncc1 [Example B-1022]
Second: CN(C)C(=O)NCCc1[nH]nc(-c2ccc(F)cc2)c1-c1ccncc1 [Example B-1035]
The “P38 alpha kinase % inhib @ conc. (uM)” value of the first is higher: 84.0% @ for the first, 75.0% @ for the second.

First: COc1ccc(S(=O)(=O)NCCc2[nH]nc(-c3ccc(F)cc3)c2-c2ccncc2)cc1OC [Example B-1028]
Second: O=C(NCCc1[nH]nc(-c2ccc(F)cc2)c1-c1ccncc1)N1CCOCC1 [Example B-1033]
The “P38 alpha kinase % inhib @ conc. (uM)” value of the first is lower: 70.0% @ for the first, 86.0% @ for the second.

For Cc1ccc(S(=O)(=O)NC(Cc2ccccc2)C(=O)NCCc2[nH]nc(-c3ccc(F)cc3)c2-c2ccncc2)cc1 (stereo not shown) [Example B-1011], the “P38 alpha kinase % inhib @ conc. (uM)” value was 72.0% 2.

same assay, conditions: @ 10.0 uM

In the case of COc1cc(NC(=O)NCCc2[nH]nc(-c3ccc(F)cc3)c2-c2ccncc2)cc(OC)c1OC [Example B-0979], the “P38 alpha kinase % inhib @ conc. (uM)” value was 56.0% @.

same assay, conditions: in vitro P38-alpha kinase inhibition; read-out: P38 alpha kinase IC50

Going from COCC(=O)NC(Cc1ccccc1)c1[nH]nc(-c2ccc(F)cc2)c1-c1ccncc1 (stereo not shown) [Example B-0842] to CC(C)COC(=O)NC(Cc1ccccc1)c1[nH]nc(-c2ccc(F)cc2)c1-c1ccncc1 (stereo not shown) [Example B-0858], the pIC50 falls from 6.13 to 5.68 (0.45 log units).

O=C(NC(Cc1ccccc1)c1[nH]nc(-c2ccc(F)cc2)c1-c1ccncc1)c1ccc(F)c(F)c1F (stereo not shown) [Example B-0845] and Cc1ccc(C(=O)NC(Cc2ccccc2)c2[nH]nc(-c3ccc(F)cc3)c2-c2ccncc2)cc1 (stereo not shown) [Example B-0850] are within 0.2 log units of each other in pIC50: 5.75 for the first, 5.74 for the second.

First: CC(C)=CC(=O)NC(Cc1ccccc1)c1[nH]nc(-c2ccc(F)cc2)c1-c1ccncc1 (stereo not shown) [Example B-0846]
Second: O=C(NC(Cc1ccccc1)c1[nH]nc(-c2ccc(F)cc2)c1-c1ccncc1)C1CCCC1 (stereo not shown) [Example B-0852]
The pIC50 of the first is 0.25 log units lower: 5.74 for the first, 5.99 for the second. The second is the more potent here.

COc1ccc(CC(=O)NC(Cc2ccccc2)c2[nH]nc(-c3ccc(F)cc3)c2-c2ccncc2)cc1 (stereo not shown) [Example B-0848] and COc1cccc(CC(=O)NC(Cc2ccccc2)c2[nH]nc(-c3ccc(F)cc3)c2-c2ccncc2)c1 (stereo not shown) [Example B-0849] are within 0.2 log units of each other in pIC50: 5.81 for the first, 5.90 for the second.

Going from O=C(NC(Cc1ccccc1)c1[nH]nc(-c2ccc(F)cc2)c1-c1ccncc1)c1ccccc1 (stereo not shown) [Example B-0851] to CC(Oc1ccccc1)C(=O)NC(Cc1ccccc1)c1[nH]nc(-c2ccc(F)cc2)c1-c1ccncc1 (stereo not shown) [Example B-0857], the pIC50 falls from 6.04 to 5.20 (0.84 log units).

First: Cc1ccc(S(=O)(=O)NC(Cc2ccccc2)C(=O)NC(Cc2ccccc2)c2[nH]nc(-c3ccc(F)cc3)c2-c2ccncc2)cc1 (stereo not shown) [Example B-0859]
Second: CNC(=O)CCC(NC(=O)c1ccccc1I)c1[nH]nc(-c2ccc(F)cc2)c1-c1ccncc1 (stereo not shown) [Example B-0861]
The pIC50 of the first is 1.48 log units lower: 4.40 for the first, 5.88 for the second.

First: CNC(=O)CCC(NC(=O)c1ccc(F)cc1)c1[nH]nc(-c2ccc(F)cc2)c1-c1ccncc1 (stereo not shown) [Example B-0862]
Second: CNC(=O)CCC(NC(=O)NC)c1[nH]nc(-c2ccc(F)cc2)c1-c1ccncc1 (stereo not shown) [Example B-0880]
The pIC50 of the first is 1.15 log units lower: 5.67 for the first, 6.82 for the second.

First: CNC(=O)CCC(NS(C)(=O)=O)c1[nH]nc(-c2ccc(F)cc2)c1-c1ccncc1 (stereo not shown) [Example B-0878]
Second: CNC(=O)CCC(NC(=O)Nc1ccc(OC)cc1OC)c1[nH]nc(-c2ccc(F)cc2)c1-c1ccncc1 (stereo not shown) [Example B-0884]
The pIC50 of the first is 0.47 log units higher: 6.19 for the first, 5.72 for the second.
